We go through six compounds from US20120208873A1, “TEA POLYPHENOLS PRODUCTS FOR CEASING SMOKING AND TREATING AND/OR PREVENTING NICOTINE OR NICOTINE-DERIVED COMPOUNDS OR ESTROGEN INDUCED BREAST CANCER” (priority 2011, published 2012).

In one series the test system is α9-nAChR protein. The series can be described thus: α9-nAChR protein levels by immunoblotting in MCF-7 cells. The series is classed as cell-based, human. As to the method:
(§1) Human mammary gland epithelial adenocarcinomas (MCF7, MDA-MB-231, AU-565, MDA-MB-453, and BT-483) and normal human mammary gland epithelial fibrocystic cell lines (MCF-10A and HBL-100) were purchased from ATCC (American Type Culture Collection, Manassas, Va., USA). MCF-7, MDA-MB-231, and MDA-MB-453 cells were maintained in DMEM, whereas BT-483 cells were maintained in RPMI-1640. Cell growth, proliferation, and viability were determined by the 3-(4,5-dimethylthiazol-2-yl)-2,5-diphenyltetrazolium (MTT) assay. The formazan product was measured by absorbance at 540 nm.
(§2) To prepare protein samples, cells were washed once with ice-cold PBS and lysed on ice in cell lysis buffer (50 mM Tris-HCl, pH 8.0, 120 mM […], 0.5% Nonidet P-40, 100 mM sodium fluoride, and 200 μM sodium orthovanadate) containing protease inhibitors as described previously (Shih, Y. L., Liu, H. C., Chen, C. S., Hsu, C. H. et al., J. Agric. Food Chem. 2010, 58, 235-241). Protein (50 μg) from each sample was resolved by 12% SDS-polyacrylamide gel electrophoresis, transferred, and analyzed by Western blotting. Antibodies were purchased from the following vendors: anti-total AKT and protein A/G agarose beads were obtained from Santa Cruz Biotechnology (Santa Cruz, Calif., USA); anti-GAPDH and anti-α9-nAChR antibodies were from Abcam (Cambridge, UK); antiphospho AKT (Ser^473), anti-c-Jun, and anti-c-Fos were from Cell Signaling Technology (Beverly, Mass., USA). The secondary antibodies, alkaline phosphatase-coupled anti-mouse, and anti-rabbit IgG were purchased from Santa Cruz Biotechnology. The specific protein complexes were identified with the chromogenic substrates nitro blue tetrazolium, and 5-bromo-4-chloro-3-indolyl-phosphate from KPL (Gaithersburg, Md., USA). In each experiment, proteins were also probed with anti-GAPDH antibodies as a protein-loading control.
For orientation: Immunoblotting shows a protein as a band on a membrane.

For series [1] the following is noted: cited from earlier work.
The test system of the next series is α9-nAChR promoter. The experiment in a line: α9-nAChR promoter luciferase activity assay in MCF-7 cells. The note with it: 24-h treatment, Nic 10 μM or E2 10 nM, vehicle = one-fold. The series is classed as cell-based, human. As to the method:
All α9-nAChR promoter—luciferase gene fusions were made in the pGL3-Basic vector (Promega, Madison, Wis., USA) by introducing the appropriate α9-nAChR promoter fragments into the polylinker upstream of the luciferase gene. These fragments were generated with restriction enzymes and cloned directly into pGL3-Basic or subcloned first in pBluescript and then transferred to pGL3-Basic. Deletion analysis of the most promoter-proximal region was performed by generating either appropriate restriction enzyme fragments or PCR fragments with suitable sense oligonucleotides and an antisense primer (5′-[…]-3′ (SEQ ID NO:1)) that anneals to the pGL3-Basic vector downstream of the site of transcription initiation.
MCF-7 cells were plated in 6-well plates. Cells were transiently cotransfected the next day with 1.5 μg of PGL3-Basic plasmid containing the full-length α9-nAChR promoter and 0.1 μg of the RLTK plasmid (Promega) using an MP-100 microporator (Digital Bio), according to the manufacturer's instructions. After incubation for 24 h, the medium was changed to culture medium containing 10% FBS or 0.1% FB S with or without Nic. Cells were lysed 24 h later with 1× Reporter Lysis Buffer (Promega) and stored frozen at −20° C. overnight. Luciferase activity was determined by testing 50 μL of the cell lysate and 50 μL of the Luciferase Assay Reagent (Promega) using a HIDEX Chameleon Microplate Reader. Relative luciferase units were normalized to renilla luciferase from the same cell lysates. Each luciferase assay experiment was performed three times.

In a further series the test system is p-AKT (Ser^473). The series can be described thus: phosphorylated AKT by immunoblotting in MCF-7 cells. The note with it: Nic 10 μM or E2 10 nM, 24 h. The series is classed as cell-based, human. As to the method:
as §2

A further series deals with MCF-7 cells. The experiment in a line: Cell proliferation (MTT assay) in MCF-7 cells. The note with it: Nic 10 μM. The series is classed as cell-based, human. As to the method: as §1
Background: Formazan colour is commonly taken as a measure of viable cells.

The subject of the next series is AP-1. The series can be described thus: ChIP assay of AP-1 binding to the α9-nAChR promoter in MCF-7 cells. The series is classed as cell-based, human. The note with it: 24 h after Nic 10 μM. As to the method:
Chromatin immunoprecipitation (ChIP) assays of cultured cells were performed as described previously (Chen, C. S., Lee, C. H., Hsieh, C. D., Ho, C. T. et al., Breast Cancer Res. Treat. 2010; Shih, Y. L., Liu, H. C., Chen, C. S., Hsu, C. H. et al., J. Agric. Food Chem. 2010, 58, 235-241). Briefly, after various regimens of Nic treatment, the cells were fixed with a final concentration of 1% formaldehyde directly added to the cell culture medium at 25° C. for 15 min. The crosslinking reaction was terminated with 0.125 M glycine for 5 min, and the cells were collected into a new Eppendorf tube. The cell lysate was sonicated three times with 10 s bursts to yield input DNA enriched for fragments around 1000 bp in size. A c-Jun (AP-1) antibody (Santa Cruz Biotechnology) was used for the immunoprecipitation reactions. Primers, which detect the a9-nAChR promoter regions, amplified a region from −960 to −1 for 32 cycles (forward: 5′-ATGCAATG CAAGCCTGAGCT-3′ (SEQ ID NO:2) and reverse: 5′-TATA-[…]-3′ (SEQ ID NO:3)). The PCR products were then separated and analyzed by agarose gel electrophoresis.

The next series relates to MCF-10A cells. The series can be described thus: Cell proliferation (MTT assay) in normal MCF-10A cells. The series is classed as cell-based, human. The note with it: Nic 10 μM or EGCG 10-25 μM. As to the method:
as §1

The subject of the next series is α9-nAChR mRNA. The experiment in a line: α9-nAChR mRNA by RT-PCR / real-time PCR in MCF-7 cells. The series is classed as cell-based, human. The procedure:
Total RNA was isolated from human cell lines using TRIzol (Invitrogen, Carlsbad, Calif., USA) according to the manufacturer's protocol. The α9-nAChR subunit-specific primers were synthesized by MB Mission BioTech (Taipei, Taiwan) as described in the previous reports (Chen, C. S., Lee, C. H., Hsieh, C. D., Ho, C. T. et al., Breast Cancer Res. Treat. 2010; Shih, Y. L., Liu, H. C., Chen, C. S., Hsu, C. H. et al., J. Agric. Food Chem. 2010, 58, 235-241). The PCR amplicons were analyzed on 1.2% agarose gels (Amresco, Solon, Ohio, USA) stained with ethidium bromide. The α9-nAChR mRNA intensity was measured and normalized to β-glucuronidase expression. Pictures of the bands were taken using an INFINITY-α digital imaging system (Vilber Lourmat, France), and band intensities were determined using PhotoCapt Version 11.01 software.
In general terms: Quantitative PCR measures a nucleic acid by following its amplification.

The next series deals with T1, α9-nAChR (Homo sapiens, UniProt Q9UGM1).
T1 construct: breast cancer cell proliferation induced by Nic could be mediated through endogenous α9-nAChR; endogenous in cells; host or cells: MCF-7 cell monolayers: wild type, scramble control (Sc) and α9-nAChR siRNA knockdown (Si) clones
T1 sequence (Q9UGM1 26-479 limits assumed): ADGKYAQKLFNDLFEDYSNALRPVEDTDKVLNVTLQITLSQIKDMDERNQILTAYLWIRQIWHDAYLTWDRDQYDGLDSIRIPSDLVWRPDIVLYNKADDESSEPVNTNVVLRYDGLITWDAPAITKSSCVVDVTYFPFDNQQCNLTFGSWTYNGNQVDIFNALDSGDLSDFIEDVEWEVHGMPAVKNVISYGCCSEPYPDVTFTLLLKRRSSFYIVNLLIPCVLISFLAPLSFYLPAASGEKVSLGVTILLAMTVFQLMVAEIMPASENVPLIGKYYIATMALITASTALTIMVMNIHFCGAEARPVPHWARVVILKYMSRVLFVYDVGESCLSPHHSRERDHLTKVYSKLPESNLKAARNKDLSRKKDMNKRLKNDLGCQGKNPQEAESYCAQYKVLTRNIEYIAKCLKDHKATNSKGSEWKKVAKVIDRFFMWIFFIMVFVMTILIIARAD
The note with it: MCF-7 cells, previous results, cited from earlier work.

Like-named read-outs stand apart in the source and are kept apart here.

Regarding `O=c1cc(N2CCOCC2)oc2c(-c3ccccc3)cccc12` [LY294002], in the series on α9-nAChR protein (MCF-7, 24 h pretreatment (LY294002 25 μM or EGCG 10 μM), then Nic 10 μM or E2 10 nM 24 h), the “Nic- and E2-induced upregulation of α9-nAChR protein after inhibitor pretreatment” value is listed as “not significantly inhibited”.
For the compound `CN1CCCC1c1cccnc1` (centres unmarked) [Nic, nicotine], in [1] (in vivo), the “Nic concentration in gastric juices” value is on record as greater than 800 ng/mL, the “Nic concentration in plasma” value is reported as “about 15 ng/mL”, the “Nic concentration in saliva” value is greater than 1300 ng/mL and the “saliva concentration of nicotine” value is 1 mM. In addition, in [1] (in vivo), the “serum concentration of nicotine” value is 10 to 100 µM and the “steady-state serum concentration of nicotine” value is 200 nM. The “inhaled Nic absorbed systemically during smoking” value in series [1] (studies using ^14C-Nic) is recorded as 80-90%. In the series on α9-nAChR protein, the “time after Nic treatment at which significant increase in α9-nAChR protein level was detected” value is listed as 6 h and the α9-nAChR protein level result is “significantly induced”. Also, in the series with α9-nAChR promoter, the “induction of full-length α9-nAChR promoter luciferase activity” value was found to be 41.8 fold. Further, the “levels of p-AKT (Ser^473)” value in the series with p-AKT (Ser^473) is given as “significantly increased”. The “cellular proliferation rates in wild-type (C) and scrambled vector control (Sc) cells” value in the series with MCF-7 cells (MCF-7 (C) and (Sc)) was “significantly increased”. The “breast cancer cell growth” value in the series with MCF-7 cells (MCF-7, 24 h) is listed as “significantly stimulated”. The “Nic-induced growth effects in α9-nAChR siRNA knockdown (Si) cells” value with MCF-7 cells (MCF-7 α9-nAChR (Si)) is “almost completely attenuated”. In addition, in the series on AP-1, the “binding of AP-1 to the α9-nAChR promoter” value is given as “increased binding”. For the same compound, the “cell number in normal breast epithelial cells” value in the series on MCF-10A cells is reported as “no changes”. In addition, the “time after Nic treatment at which significant increase in α9-nAChR mRNA level was detected” value with α9-nAChR mRNA (Nic 1 μM time course) is on record as 6 h. The “α9-nAChR mRNA expression (real-time PCR)” value with α9-nAChR mRNA (Nic 10 μM or E2 10 nM, 24 h) was “significantly upregulated”.
For `CN(CCCC(=O)c1cccnc1)N=O` [NNK, 4-(methylnitrosamino)-1-(3-pyridyl)-1-butanone], the α9-nAChR protein level entry with α9-nAChR protein (MCF-7, Nic 0.1-10 μM, NNK 0.1-10 μM or E2 1-200 nM, 24 h, dose-dependent) was “significantly induced”.
In general, Kd refers to the concentration at which binding is half-saturated. On to `CN1CCCC1c1cccnc1` [[^3H]-Nic, L-(−)-[N-methyl-^3H]-Nic], for which the dissociation constant Kd at α9-nAChR (read-out: dissociation constant (Kd) of [^3H]-Nic binding) was 3 nM.
For `[3H]CN1CCCC1c1cccnc1` [[^3H]-Nic, L-(−)-[N-methyl-^3H]-Nic], the “time at which maximum binding activity is attained” value at α9-nAChR is 60 min.
Consider `C[C@]12CC[C@@H]3c4ccc(O)cc4CC[C@H]3[C@@H]1CC[C@@H]2O` [E2, estradiol], for which the “induction of full-length α9-nAChR promoter luciferase activity” value in the series on α9-nAChR promoter was determined as 2.3 fold.
